# Laboratory results published in US20050089839A1, “Assay” (priority 2001, published 2005).
# Where a SMILES comes first, the peptide text is derived from it. The star is where a group is joined. Cbz = O=C(OCc1ccccc1)*
# Legend:
# [1] = molecular target: T1, signal peptide peptidase (SPPase) (Canis lupus familiaris, UniProt A0A8I3P6M4); assay: In vitro translation/translocation of SP-E1/100 and core-E1/100 with ER-derived rough microsomes: SPPase processing; assay type: biochemical, dog; settings: 10 μM (Z-LL)2-ketone; for Production of the 19 kDa core species (core179) from core-E1/100: FIG. 1B, FIG. 3B
# T1 construct: translated in reticulocyte lysate in the presence of endoplasmic reticulum-(ER) derived rough microsomes; from tissue; host or cells: nuclease-treated rough microsomes from dog pancreas
# Protocol: The mRNAs were translated in 25 μl rabbit reticulocyte lysate (Promega) containing [^35S]-methionine (Amersham-Pharmacia) and, where indicated, 2 eq of nuclease-treated rough microsomes prepared from dog pancreas (Martoglio et al., 1998, Cell Biology: A Laboratory Handbook. Academic Press, San Diego, Calif., vol 2, 265-274). To inhibit signal peptide peptidase (SPPase) processing, 10 μM (Z-LL)2-ketone was added to reactions (Weihofen et al., 2000 J Biol Chem 275, 30951-30956), and reactions were supplemented with 30 μM N-benzoyl-Asn-Leu-Thr-methyamide to prevent N-glycosylation of translated products (Martoglio et al., 1998, Cell Biology: A Laboratory Handbook. Academic Press, San Diego, Calif., vol 2,265-274). Samples were incubated for 30 min at 30° C. Reactions containing microsomes were next diluted with 25 μl of RM buffer (50 mM HEPES-KOH, pH7.6, 50 mM KOAc, 2 mM Mg(OAc)2, 1 mM DTT, 250 mM sucrose), and the salt concentration was raised to 500 mM KOAc. After incubation for 5 min on ice, membranes were separated by centrifugation through a 100 μl sucrose cushion (RM buffer with 500 mM KOAc and 500 mM sucrose) at 48,000 rpm for 3 min at 4° C. in a Beckman TLA100 rotor. Membrane pellets were prepared for SDS-PAGE as described (Weihofen et al., 2000 J Biol Chem. 275, 30951-30956).
# This processing event was re-examined in an in vitro translation/translocation system. Two RNA substrates, that had been transcribed in vitro, were employed. One contained the E1 signal sequence and the N-terminal 100 aa of E1 (SP-E1/100), and the second consisted of the entire core protein, including the signal sequence, plus the N-terminal 100 aa of E1 (core-E1/100). These were translated in reticulocyte lysate in the presence of endoplasmic reticulum-(ER) derived rough microsomes and [^35S]-methionine. Microsomes were subsequently isolated and analysed for retention of radiolabelled translation products.
# SPPase [2] = assay: Photo-labelling of CHAPS-solubilised ER membrane proteins with TBL4K, anti-biotin western blot; assay type: binding, dog; settings: 50 nM TBL4K
# Protocol: CHAPS-solubilised ER membrane proteins were mixed with 50 nM TBL4K (dissolved in DMSO) and samples incubated at 30° C. for 1 hour. Where indicated, samples were irradiated with UV light before precipitation with 10% trichloroacetic acid. Proteins were resolved on Tris-glycine acrylamide gels, transferred to PVDF membrane and biotinylated proteins were visualised by western blotting with polyclonal anti-biotin antibody.
# For analytical labelling, 2 μl of CHAPS-solubilised ER membrane proteins were diluted with 16 μl of SPPase buffet (25 mM HEPES-KOH, pH 7.6, 100 mM KOAc, 2 mM Mg(OAc)2, 1 mM DTI) and supplemented with 50 nM TBL4K (dissolved in DMSO). Samples were incubated at 30° C. for 1 hour and subsequently irradiated with UV light (30 seconds; 350 W high pressure mercury lamp with a pyrex filter, 10 cm distance to lamp). Proteins were precipitated with 10% trichloroacetic acid and resolved on either Tris-glycine acrylamide gels (10% T, 2.7% C) (Lämmli, 1970 Nature, 227, 570-574). Biotinylated proteins were visualised by Western blotting with a polyclonal anti-biotin antibody (Bethyl). Western blot analysis was performed as described in Section 3, Materials and Methods for R308 antisera. […]
# signal peptidase = settings: previous studies (Weihofen et al., 2000); cited from earlier work
# [3] = test system: T2, p-Prl^PP/29, 29 aa mutant signal peptide of pre-prolactin
# T2 sequence: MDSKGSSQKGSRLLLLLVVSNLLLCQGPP
# BHK C13 cells = assay: Abundance of HCV core protein in electroporated BHK cells treated with MG132 (western blot, immunofluorescence); assay type: cell-based, baby hamster; settings: MG132 for 12 hours at 37° C.
# Protocol: BHK cells were electroporated with RNA and 5 hours after incubation at 37° C., they were treated with MG132 for 12 hours at 37° C. Cells were either fixed with methanol for indirect immunofluorescence (A) or extracts were prepared for Western blot analysis (B and C).
# For the purposes of the present invention, the cultured cells derived from baby hamster kidney (BHK) C13 cells were grown and maintained in Glasgow minimal Eagle's Medium supplemented with 10% new-born calf serum (CS), 4% tryptose phosphate broth, and 100 IU/ml penicillin/streptomycin (ETC10). To treat cells with MG132 (Boston Biochem), cultured cells were incubated for 5 hours after electroporation at 37° C. and the BHK media was replaced with fresh media containing the protease inhibitor at a final concentration of […]. Incubation was continued at 37° C. for a further 12 hours before the cells were either harvested for Western blot analysis or fixed for indirect immunofluorescence studies.
# SPPase [4] = assay: Signal peptide processing of p-PrlPP/29 by CHAPS-solubilised ER membrane proteins containing SPPase activity; assay type: biochemical, dog; parameters: SPF production: dose or concentration left out as unconfirmed
# Protocol: Radio-labelled p-Prl^PP/29 signal peptide was generated by in vitro translation in wheat germ extract containing [^35S]-methionine. Peptide was added to CHAPS-solubilised membranes in the absence or presence of TBL4K (at the indicated final concentrations) and incubated for 1 hour at 30° C. Proteins were precipitated with 10% trichloroacetic acid and analysed by SDS-PAGE using Tris-bicine-urea acrylamide gels. Bands corresponding to signal peptide substrate (ps) and the fragment of signal peptide remaining after SPPase processing (SPF) are indicated.
# The inhibitory effect of TBL4K on SPPase was assayed with CHAPS-solubilised ER membrane proteins and an in vitro translated peptide substrate. The substrate was a 29 aa residues long mutant signal peptide of pre-prolactin (p-Prl^PP/29; […]). The VV→PP mutation at the end of the signal peptide prevents cleavage by signal peptidase, which can cleave the peptide at the cryptic cleavage site at G27 when solubilised in CHAPS (B.M. unpublished). […] Proteins were precipitated by adding 4 μl of 100% trichloroacetic acid, and analysed by SDS-PAGE using Tris-bicine-urea acrylamide gels (15% T or 10% T, 5% C; 8 M urea) (Wiltfang et al., 1997 Electrophoresis 18, 527-532). […]
# T1 sequence (A0A8I3P6M4 entry or part of it): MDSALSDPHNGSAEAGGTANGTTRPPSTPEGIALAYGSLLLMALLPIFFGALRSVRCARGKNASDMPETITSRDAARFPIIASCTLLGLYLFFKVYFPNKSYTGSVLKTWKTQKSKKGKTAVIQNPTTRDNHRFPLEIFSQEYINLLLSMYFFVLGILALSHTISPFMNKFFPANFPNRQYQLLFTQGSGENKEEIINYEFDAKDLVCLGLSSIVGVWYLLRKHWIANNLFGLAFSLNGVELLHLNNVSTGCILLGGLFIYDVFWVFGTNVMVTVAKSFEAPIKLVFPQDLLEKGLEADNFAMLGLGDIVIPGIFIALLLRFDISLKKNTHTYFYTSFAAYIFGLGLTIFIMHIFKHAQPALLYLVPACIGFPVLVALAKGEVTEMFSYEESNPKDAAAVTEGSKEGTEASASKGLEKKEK
molecule,measurement,setting,value
CC(C)C[C@H](NC(=O)OCc1ccccc1)C(=O)N[C@@H](CC(C)C)C(=O)NCC(=O)CNC(=O)[C@H](CC(C)C)NC(=O)[C@H](CC(C)C)NC(=O)OCc1ccccc1 [(Z-LL)2 ketone],Cleavage by SPPase of the signal peptide generated from SP-E1/100,[1]; FIG. 1A,blocked
same,Production of the 19 kDa core species (core179) from core-E1/100,[1],blocked
same,Production of the 19 kDa core species (core179) from core-E1/100,[1]; listed as SPPase inhibitor,not generated
same,Labelling by TBL4K in presence of competitor,"SPPase [2]; highest concentration of (Z-LL)2 ketone, FIG. 10",almost completely abolished
same,Effect on cleavage by signal peptidase,signal peptidase,does not affect
signal peptide peptidase (SPPase) of ER-derived rough microsomes from dog pancreas,"signal peptide processing by SPPase (in vitro translation/translocation, with and without (Z-LL)2 ketone)",SP-E1/100 (wild type),the internal signal sequence at the junction of core-E1 functions as a typical ER targeting signal and is a substrate not only for signal peptidase but also for SPPase
same,processing of the signal peptide by SPPase,SP-E1/100 MUTIII,less than 5% processing of the signal peptide by SPPase
same,cleavage of the signal peptide (in vitro translation/translocation),SP-E1/100 MUTII,"cleavage of the signal peptide was reduced with both mutants, but to a greater extent with pSP/MUTII as compared to pSP/MUTI"
same,cleavage of the signal peptide (in vitro translation/translocation),SP-E1/100 MUTI,"cleavage of the signal peptide was reduced with both mutants, but to a greater extent with pSP/MUTII as compared to pSP/MUTI"
same,efficiency of processing (core179 relative to core191+core179),core-E1/100 (wild type),reduced efficiency of processing from 40% to 12%
same,"production of the 19 kDa core species (in vitro translation/translocation, with and without (Z-LL)2 ketone)",core-E1/100 (wild type),the signal peptide at the junction of core-E1 sequences in HCV is first cleaved by signal peptidase and subsequently processed by SPPase
same,product cleaved by SPPase (in vitro translation/translocation),core-E1/100 MUTIII,failed to generate any detectable product that had been cleaved by SPPase
same,product cleaved by SPPase (in vitro translation/translocation),core-E1/100 MUTII,failed to generate any detectable product that had been cleaved by SPPase
same,efficiency of processing (core179 relative to core191+core179),core-E1/100 MUTI,reduced efficiency of processing from 40% to 12%
same,signal peptide processing (production of the SPF fragment) with CHAPS-solubilised ER membrane proteins,[3],"signal peptide processing reactions were performed with a substrate, p-Prl^PP/29, that corresponds to a mutated signal peptide of pre-prolactin, and CHAPS-solubilised ER membrane proteins containing SPPase activity"
CC(C)C[C@@H](C=O)NC(=O)[C@H](CC(C)C)NC(=O)[C@H](CC(C)C)NC(=O)OCc1ccccc1 [MG132] (Cbz-Leu-Leu-Leu-aldehyde),Levels of core produced by pSF/CE1E2 (core variant lacking residues 125-144),BHK C13 cells; FIG. 7B lanes 3 and 4,enhanced levels
same,"Amount of core in cells electroporated with pSF/MUTIII RNA (125-144 deleted, signal peptide mutations)",BHK C13 cells; FIG. 7B lanes 5 and 6,did not affect
(TDBA-LL)(Biotin-X-LL) ketone [TBL4K],SPF production,SPPase [4]; highest concentration used,abolished
same,IC50,"SPPase [4]; substrate p-PrlPP/29, 1 hour at 30° C., FIG. 9, read-out: IC50 for inhibition of SPPase activity",~0.05 µM
same,Proteins labelled after UV activation,"SPPase [2]; UV light, FIG. 10 lane 3",labelling of a major product of about 42 kDa
